Entries after “also recorded” stand apart in the source; their conditions may differ.
Target: T1, sucrase (Rattus norvegicus, UniProt P23739)
T1 construct: This liquid contained a mixture of enzymes present in small intestine, such as sucrose, glucoamylase, maltase, and isomaltase; tissue Sigma Corporation; host or cells: rat small intestine (acetone powder), buffer extract, unpurified
Experiment: Sucrase activity inhibition with rat small-intestinal enzyme liquid, substrate sucrose
Type: biochemical
Description: Palatinose (trade name: Palatinose IC, ex Shin Mitsui Sugar Co., Ltd.) (test sample) was used as a sample for investigating each enzyme activity inhibitory effect. Maltose and sucrose were used as substrates for maltase and sucrose, respectively. The test sample and the substrates were dissolved in 0.1 M phosphate buffer (pH 6.8) at the concentration shown in Table 1 below to prepare test solutions (Solutions 4 and 5). Also, the test sample or the substrates were dissolved in 0.1 M phosphate buffer (pH 6.8), respectively to at the concentration shown in Table 1 below to prepare control solutions (Solution 1 for the test sample and Solutions 2 and 3 for the substrates).
Two grams of rat small-intestinal acetone powder (ex Sigma Corporation) were dissolved in 20 ml of 0.1 M phosphate buffer (pH 6.8), left standing one day at 5° C., and subsequently subjected to centrifugal separation (8000 rpm×15 min.). The supernatant was filtered through a 0.8 μm membrane filter to obtain a small-intestinal enzyme liquid. This liquid contained a mixture of enzymes present in small intestine, such as sucrose, glucoamylase, maltase, and isomaltase.
Each 0.25 ml of the small-intestinal enzyme liquid was added to each 5 ml of Solutions 1 through 5 and placed in a water bath at 37° C. to allow them to react for 60 min. while shaken at 60 strokes/min. After the reaction, they were heated in a boiling water bath for 3 min. for inactivation of the enzymes.
The glucose concentration in each solution after the reaction was measured using the F-kit Glucose (ex Roche). A liberated glucose concentration (g/l) was calculated by subtracting the blank value (0.1 M phosphate buffer alone) and the concentration of glucose originally contained in the test sample from each glucose concentration measured.
Next, each of the liberated glucose concentration was input in the following equation to obtain decomposition inhibition ratio for maltase and sucrose. In the present tests, the substrates and the inhibitors were decomposed by enzymes present in the small-intestinal enzyme liquid. However, the enzymes decomposing the substrates are different from the enzymes decomposing the inhibitors. The decomposition inhibition ratio was determined as a measure for the inhibitory effect. When the inhibitor was added, the glucose concentration was lower than that seen when the substrate alone was reacted. A higher decomposition inhibition ratio means a stronger inhibitory effect.
Decomposition inhibition ratio,%={(A+B)−(AB)}+(A+B)×100 [Equation 1]
wherein (A+B) indicates a sum of a liberated glucose concentration in the control solution containing the test sample alone after the reaction (A) and a liberated glucose concentration in the control solution containing the substrate alone after the reaction (B); and (AB) indicates a liberated glucose concentration in the test solution containing the test sample (A) and the substrate (B), after the reaction.
The procedures in Example 1 were repeated with the exception that the test solutions contained 5% of sucrose and 0.5%, 1.0%, 3.0% or 5.0% of palatinose to examine intensity of the sucrose activity inhibition. A control solution contained 5% of sucrose in 0.1 M phosphate buffer (pH 6.8).
The procedures in Example 1 were repeated with the exception that palatinit and palatinose were used as test samples and sucrose was used as a substrate. The test samples and the substrate were dissolved in 0.1 M phosphate buffer (pH 6.8) to attain the concentration shown in Table 3 to thereby prepare two test solutions. Besides, each one of the test samples or the substrate was dissolved in 0.1 M phosphate buffer (pH 6.8) to attain the concentration shown in Table 3 to thereby prepare control solutions. Each 5 ml of the aforementioned test solutions or the control solutions was subjected to the enzymatic reaction according to the same procedures as in Example 1. The glucose concentration and the fructose concentration were measured. […]

[1] = 5% sucrose + 5% test sample, Example 3 / Test Example 2

T1 sequence (P23739 whole entry): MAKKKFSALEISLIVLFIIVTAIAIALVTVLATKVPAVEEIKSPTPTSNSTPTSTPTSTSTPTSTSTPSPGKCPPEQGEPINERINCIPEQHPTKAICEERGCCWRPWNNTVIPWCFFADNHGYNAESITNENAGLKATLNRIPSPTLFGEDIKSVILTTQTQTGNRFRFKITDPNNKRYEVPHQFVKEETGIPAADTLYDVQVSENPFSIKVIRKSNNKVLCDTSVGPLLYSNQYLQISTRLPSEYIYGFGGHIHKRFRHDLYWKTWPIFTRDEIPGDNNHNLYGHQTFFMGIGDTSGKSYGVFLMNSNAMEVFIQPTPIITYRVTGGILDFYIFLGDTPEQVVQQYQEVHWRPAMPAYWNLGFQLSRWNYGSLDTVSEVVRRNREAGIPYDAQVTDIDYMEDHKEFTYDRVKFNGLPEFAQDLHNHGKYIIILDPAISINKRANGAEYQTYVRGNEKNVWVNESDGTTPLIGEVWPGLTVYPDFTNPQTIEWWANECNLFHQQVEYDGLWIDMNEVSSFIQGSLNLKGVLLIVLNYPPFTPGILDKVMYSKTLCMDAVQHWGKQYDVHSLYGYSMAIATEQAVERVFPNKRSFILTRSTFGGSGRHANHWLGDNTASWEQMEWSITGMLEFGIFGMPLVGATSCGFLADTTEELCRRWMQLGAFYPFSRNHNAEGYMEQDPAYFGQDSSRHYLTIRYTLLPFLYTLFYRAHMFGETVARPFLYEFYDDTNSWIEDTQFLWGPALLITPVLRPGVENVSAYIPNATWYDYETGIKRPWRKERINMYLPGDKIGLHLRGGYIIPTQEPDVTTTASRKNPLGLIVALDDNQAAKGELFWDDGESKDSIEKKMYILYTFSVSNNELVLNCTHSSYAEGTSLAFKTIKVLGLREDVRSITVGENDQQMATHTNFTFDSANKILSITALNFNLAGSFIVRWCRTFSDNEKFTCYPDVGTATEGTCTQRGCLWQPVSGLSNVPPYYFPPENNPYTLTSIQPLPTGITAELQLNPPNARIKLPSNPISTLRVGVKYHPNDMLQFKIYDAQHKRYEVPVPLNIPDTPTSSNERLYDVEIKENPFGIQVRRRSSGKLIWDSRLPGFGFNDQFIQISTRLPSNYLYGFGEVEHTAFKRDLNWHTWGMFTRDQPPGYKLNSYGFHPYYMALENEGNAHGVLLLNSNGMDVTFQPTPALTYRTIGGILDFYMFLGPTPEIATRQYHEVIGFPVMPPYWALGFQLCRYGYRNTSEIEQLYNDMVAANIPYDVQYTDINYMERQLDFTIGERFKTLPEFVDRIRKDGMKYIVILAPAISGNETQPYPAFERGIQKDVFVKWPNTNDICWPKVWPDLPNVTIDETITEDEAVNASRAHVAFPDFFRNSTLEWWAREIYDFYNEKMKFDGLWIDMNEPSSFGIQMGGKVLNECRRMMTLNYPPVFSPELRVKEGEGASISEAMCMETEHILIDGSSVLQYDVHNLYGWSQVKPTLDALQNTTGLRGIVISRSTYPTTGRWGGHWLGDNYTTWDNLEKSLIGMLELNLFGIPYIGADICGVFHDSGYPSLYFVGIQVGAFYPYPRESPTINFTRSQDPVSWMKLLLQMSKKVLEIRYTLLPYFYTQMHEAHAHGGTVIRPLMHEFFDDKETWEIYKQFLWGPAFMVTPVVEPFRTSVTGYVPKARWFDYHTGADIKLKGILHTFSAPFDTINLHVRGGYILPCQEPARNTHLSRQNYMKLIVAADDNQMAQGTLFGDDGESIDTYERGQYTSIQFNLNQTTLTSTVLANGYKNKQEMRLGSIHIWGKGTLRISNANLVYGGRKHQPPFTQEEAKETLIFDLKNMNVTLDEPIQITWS

OC[C@H]1O[C@H](OC[C@H]2OC(O)(CO)[C@@H](O)[C@@H]2O)[C@H](O)[C@@H](O)[C@@H]1O (stereo partly shown) [palatinose, isomaltulose]
Intensity of the sucrase activity inhibition, dependence on concentration (FIG. 1) (5% sucrose + 0.5%, 1.0%, 3.0% or 5.0% palatinose): inhibits sucrose activity depending upon its concentration | Sucrase activity inhibitory effect (in words) (5% sucrose + 5% test sample): a sucrose activity inhibitory effect; also recorded: have a sucrose inhibitory effect | Liberated glucose concentration (5% sucrose + 5% test sample, 37° C., 60 min, Example 1 / Test Example 1): 0.803 ± 0.055 g/L | Decomposition inhibition ratio, %, against sucrase (5% sucrose + 5% test sample, Equation 1, Example 1 / Test Example 1): 24% | Decomposition inhibition ratio, %, against sucrase [1]: 29% | Liberated fructose concentration [1]: 1.05 g/L | Liberated glucose concentration [1]: 0.79 g/L
